Source: patent US10570168B2, “2′ and/or 5′ amino-acid ester phosphoramidate 3′-deoxy adenosine derivatives as anti- cancer compounds” (NuCana plc, priority 2014, dated 2020)

Experiments:
[1] = test system: leukaemic stem cell (LSC) compartment within the KG1a cell line; assay: Immunophenotypic identification of the leukaemic stem cell compartment; type: cell-based; conditions: 72 h
Procedure: KG1a cells were cultured for 72 h in the presence of a wide range of concentrations of each compound assayed. Cells were then harvested and labelled with a cocktail of anti-lineage antibodies (PE-cy7), anti-CD34 (FITC), anti-CD38 (PE) and anti-CD123 (PERCP cy5). The sub-population expressing a LSC phenotype were subsequently identified and were expressed as a percentage of all viable cells left in the culture. The percentages of stem cells remaining were then plotted on a dose-response graph and the effects of the compounds were compared with each other, and with the parent nucleoside.
The data obtained in these experiments were evaluated using one way ANOVA. All data was confirmed as Gaussian or a Gaussian approximation using the omnibus K2 test. LD50 values were calculated from the non-linear regression and line of best-fit analysis of the sigmoidal dose-response curves. All statistical analyses were performed using Graphpad Prism 6.0 software (Graphpad Software Inc., San Diego, Calif.).

[2] = test system: KG1a cells; assay: Annexin V/propidium iodide in vitro apoptosis assay (LD50); type: cell-based; conditions: 72 h
Procedure: The KG1a cell line was maintained in RPMI medium (Invitrogen, Paisley, UK) supplemented with 100 units/ml penicillin, 100 μg/ml streptomycin and 20% foetal calf serum. Cells were subsequently aliquoted (10^5 cells/100 μl) into 96-well plates and were incubated at 37° C. in a humidified 5% carbon dioxide atmosphere for 72 h in the presence of nucleoside analogues and their respective proTides at concentrations that were experimentally determined for each series of compounds. In addition, control cultures were carried out to which no drug was added. Cells were subsequently harvested by centrifugation and were analyzed by flow cytometry using the Annexin V assay.
Cultured cells were harvested by centrifugation and then resuspended in 195 μl of calcium-rich buffer. Subsequently, 5 μl of Annexin V (Caltag Medsystems, Botolph Claydon, UK) was added to the cell suspension and cells were incubated in the dark for 10 mins prior to washing. Cells were finally resuspended in 190 μl of calcium-rich buffer together with 10 μl of propidium iodide. Apoptosis was assessed by dual-colour immunofluorescent flow cytometry as described previously.
The data obtained in these experiments were evaluated using one way ANOVA. […] LD50 values were calculated from the non-linear regression and line of best-fit analysis of the sigmoidal dose-response curves. […]

C[C@H](NP(=O)(OC[C@@H]1CC(O)[C@H](n2cnc3c(N)ncnc32)O1)Oc1ccccc1)C(=O)OCc1ccccc1 (stereo partly drawn) [Compound A, 3′-deoxyadenosine-5′-O-[phenyl(benzyloxy-L-alaninyl)] phosphate]
reduction of LSCs as a proportion of the cancer cells in culture (ability to target LSCs) ([1]; Lin−/CD34+/CD38−/CD123+): preferentially target cancer stem cells | LSC targeting compared with the parent nucleoside ([1]; for compound A at 1 mM and above): significantly greater than that of the parent compound | in vitro drug sensitivity / potency (LD50 comparison, FIG. 1) [2]: increased in vitro potency when compared to Cordycepin
